pEC50: −log10 of the molar value. Several values for one entry are separate records, joined by “and”; a condition that tells them apart may be missing. Equal entries are not always repeated.

This passage reports EC50 results from patent US11230526B1, “Cylcoalkenyl derivatives useful as agonists of the GPR120 and/or GPR40 receptors” (Janssen Pharmaceutica NV, priority 2018, dated 2022).

The target in one assay is T1, Human GPR120 short form (Homo sapiens, UniProt Q5NUL3).
T1 construct: expressed in transfected cells
T1 sequence (Q5NUL3 1-361): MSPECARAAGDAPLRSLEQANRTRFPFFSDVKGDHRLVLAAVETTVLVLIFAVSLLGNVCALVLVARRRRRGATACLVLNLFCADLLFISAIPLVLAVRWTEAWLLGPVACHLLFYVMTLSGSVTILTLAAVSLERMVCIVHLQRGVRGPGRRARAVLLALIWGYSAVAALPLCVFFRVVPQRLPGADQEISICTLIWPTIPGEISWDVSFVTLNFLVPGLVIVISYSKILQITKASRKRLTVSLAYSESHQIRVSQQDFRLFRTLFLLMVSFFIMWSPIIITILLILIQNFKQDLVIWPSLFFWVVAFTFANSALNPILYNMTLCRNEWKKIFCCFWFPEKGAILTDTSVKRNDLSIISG
Briefly: Human GPR120 calcium flux assay, Procedure Calcium B (4200 cells/well). It counts as cell-based. In outline: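 HEK293 cells stably expressing human GPR120 (NM_001195755.1), 4200 cells/well, starved 1 h and loaded with Fluo-4 NW plus probenecid. Ligand-evoked calcium flux read on FLIPR for 300 s after a 10 s baseline. RFU = Fmax−Fmin; EC50 from four-parameter concentration-response fit.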

Assay [1] addresses T2, short form of the GPR120 receptor (Homo sapiens, UniProt Q5NUL3).
T2 construct: host or cells: PathHunter CHO-K1 GPR120S β-Arrestin Cell Line
As to the kind of experiment: Human GPR120 DiscoveRx PathHunter Beta-Arrestin assay, Procedure β-arrestin B. It is filed as cell-based.

T2 sequence (P32121 whole entry partner, one chain of several): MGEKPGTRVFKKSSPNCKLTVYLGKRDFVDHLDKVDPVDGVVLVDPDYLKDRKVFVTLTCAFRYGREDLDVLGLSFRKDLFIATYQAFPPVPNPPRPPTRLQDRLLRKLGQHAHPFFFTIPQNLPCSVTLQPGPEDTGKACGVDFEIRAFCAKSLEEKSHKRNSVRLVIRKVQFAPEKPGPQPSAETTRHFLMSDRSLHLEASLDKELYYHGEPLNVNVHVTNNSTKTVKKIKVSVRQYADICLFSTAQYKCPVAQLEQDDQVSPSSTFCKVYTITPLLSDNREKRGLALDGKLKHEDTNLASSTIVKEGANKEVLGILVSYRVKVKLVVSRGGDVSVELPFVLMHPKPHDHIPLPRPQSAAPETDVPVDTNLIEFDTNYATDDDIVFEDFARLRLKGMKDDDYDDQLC

In general, pEC50 refers to −log10 of the EC50, conventionally taken in molar units. Turning to `O=C(O)CCc1ccc(OCC2=C(c3ccc(Cl)cc3)CCC2)cc1F` [Compound 47, 3-[4-[[2-(4-chlorophenyl)cyclopenten-1-yl]methoxy]-2-fluoro-phenyl]Propanoic Acid], the figures for the pEC50 (at Human GPR120 short form; in assay [1]) were 6.99 and 6.56, respectively.

With `COc1cccc(C2=C(COc3ccc(CCC(=O)O)c(C)c3C)CCC2)c1` [Compound 141, 3-[4-[[2-(3-methoxyphenyl)cyclopenten-1-yl]methoxy]-2,3-dimethyl-phenyl]Propanoic Acid], the results for the pEC50 (on Human GPR120 short form; in assay [1]) were 6.59 and 5.91, respectively.

Turning to `Cc1c(CCC(=O)O)ccc(OCC2=C(c3ccc(Cl)cc3Cl)CCC2)c1C` [Compound 133, 3-[4-[[2-(2,4-dichlorophenyl)cyclopenten-1-yl]methoxy]-2,3-dimethyl-phenyl]Propanoic Acid], the pEC50 at Human GPR120 short form was 6.46; in assay [1], 5.95. In the same order, the values of `Cc1c(CCC(=O)O)ccc(OCC2=C(c3cccnc3)CCC2)c1C` [Compound 108, 3-[2,3-dimethyl-4-[[2-(3-pyridyl)cyclopenten-1-yl]methoxy]phenyl]Propanoic Acid] are 6.63 and 6.09. Taken in the same sequence, the figures for `Cc1c(CCC(=O)O)ccc(OCC2=C(c3cccs3)CCC2)c1C` [Compound 77, 3-[2,3-dimethyl-4-[[2-(2-thienyl)cyclopenten-1-yl]methoxy]phenyl]Propanoic Acid] were 6.91 and 6.43. In the same order, the values of `Cc1cc(CCC(=O)O)ccc1OCC1=C(c2ccc(Cl)cc2)CCC1` [Compound 62, 3-[4-[[2-(4-chlorophenyl)cyclopenten-1-yl]methoxy]-3-methyl-phenyl]Propanoic Acid] are 7.57 and 7.12. On to `Cc1c(CCC(=O)O)ccc(OCC2=C(c3ccc(Cl)c(Cl)c3)CCC2)c1C` [Compound 66, 3-[4-[[2-(3,4-dichlorophenyl)cyclopenten-1-yl]methoxy]-2,3-dimethyl-phenyl]Propanoic Acid], for which the pEC50 at Human GPR120 short form was 6.69; in assay [1], 6.20. Taken in the same sequence, the figures for `Cc1ccc(C2=C(COc3ccc(CCC(=O)O)c(C)c3C)CCC2)cn1` [Compound 85, 3-(2,3-dimethyl-4-((2-(6-methylpyridin-3-yl)cyclopent-1-en-1-yl)methoxy)phenyl)Propanoic Acid] were 6.63 and 6.14. For `Cc1c(CCC(=O)O)ccc(OCC2=C(c3nccs3)CCC2)c1C` [Compound 79, 3-[2,3-dimethyl-4-[(2-thiazol-2-ylcyclopenten-1-yl)methoxy]phenyl]Propanoic Acid], the figures for the pEC50 (on Human GPR120 short form; in assay [1]) were 6.72 and 6.22, respectively. Regarding `CCc1ccc(C2=C(COc3ccc(CCC(=O)O)c(C)c3C)CCC2)cc1` [Compound 27, 3-(4-((2-(4-ethylphenyl)cyclopent-1-en-1-yl)methoxy)-2,3-dimethylphenyl)Propanoic Acid], the pEC50 at Human GPR120 short form is 7.24; in assay [1], 7.11.

For the compound `Cc1c(CCC(=O)O)ccc(OCC2=C(c3ccccc3Cl)CCC2)c1C` [Compound 76, 3-[4-[[2-(2-chlorophenyl)cyclopenten-1-yl]methoxy]-2,3-dimethyl-phenyl]Propanoic Acid], the values for the pEC50 (on Human GPR120 short form; in assay [1]) were 6.87 and 6.55, respectively. On to `Cc1ccc(C2=C(COc3ccc(CCC(=O)O)cc3C)CCC2)cn1` [Compound 102, 3-(3-methyl-4-((2-(6-methylpyridin-3-yl)cyclopent-1-en-1-yl)methoxy)phenyl)Propanoic Acid], for which the pEC50 on Human GPR120 short form is 6.87; in assay [1] it was 6.44. Turning to `O=C(O)CCc1cc(F)c(OCC2=C(c3ccc(Cl)cc3)CCCC2)c(F)c1` [Compound 510, 3-[4-[[2-(4-chlorophenyl)cyclohexen-1-yl]methoxy]-3,5-difluoro-phenyl]Propanoic Acid], the pEC50 on Human GPR120 short form was 7.48; in assay [1] it was 6.68. Regarding `Cc1ccc(C2=C(COc3c(F)cc(CCC(=O)O)cc3F)CCC2)cc1C` [Compound 84, 3-(4-((2-(3,4-dimethylphenyl)cyclopent-1-en-1-yl)methoxy)-3,5-difluorophenyl)Propanoic Acid], the pEC50 on Human GPR120 short form was 6.54; in assay [1], 6.27. Taken in the same sequence, the figures for `Cc1ccccc1C1=C(COc2ccc(CCC(=O)O)c(C)c2C)CCC1` [Compound 132, 3-[2,3-dimethyl-4-[[2-(o-tolyl)cyclopenten-1-yl]methoxy]phenyl]Propanoic Acid] were 6.39 and 5.74. With `COc1cc(F)cc(C2=C(COc3ccc(CCC(=O)O)c(C)c3C)CCC2)c1` [Compound 65, 3-[4-[[2-(3-fluoro-5-methoxy-phenyl)cyclopenten-1-yl]methoxy]-2,3-dimethyl-phenyl]Propanoic Acid], the pEC50 is 6.21 at Human GPR120 short form and 5.79 in assay [1]. In the same order, the values of `Cc1ccc(C2=C(COc3ccc(CCC(=O)O)c(F)c3F)CCCC2)cc1F` [Compound 494, 3-[2,3-difluoro-4-[[2-(3-fluoro-4-methyl-phenyl)cyclohexen-1-yl]methoxy]phenyl]Propanoic Acid] are 7.43 and 6.40. Taken in the same sequence, the figures for `Cc1cc(CCC(=O)O)ccc1OCC1=C(c2ccc(Cl)c(F)c2)CCC1` [Compound 159, 3-(4-((2-(4-chloro-3-fluorophenyl)cyclopent-1-en-1-yl)methoxy)-3-methylphenyl)Propanoic Acid] were 7.59 and 7.25. As to `Cc1ccc(C2=C(COc3ccc(CCC(=O)O)c(F)c3F)CCC2)cc1C` [Compound 83, 3-(4-((2-(3,4-dimethylphenyl)cyclopent-1-en-1-yl)methoxy)-2,3-difluorophenyl)Propanoic Acid], the values for the pEC50 (on Human GPR120 short form; in assay [1]) were 6.84 and 6.20, respectively. Taken in the same sequence, the figures for `Cc1c(CCC(=O)O)ccc(OCC2=C(c3cccc(Cl)c3)CCCC2)c1C` [Compound 509, 3-[4-[[2-(3-chlorophenyl)cyclohexen-1-yl]methoxy]-2,3-dimethyl-phenyl]Propanoic Acid] were 6.38 and 5.75. Taken in the same sequence, the figures for `Cc1ccc(C2=C(COc3c(F)cc(CCC(=O)O)cc3F)CCCC2)cc1F` [Compound 493, 3-[3,5-difluoro-4-[[2-(3-fluoro-4-methyl-phenyl)cyclohexen-1-yl]methoxy]phenyl]Propanoic Acid] were 7.43 and 6.45. In the same order, the values of `Cc1c(CCC(=O)O)ccc(OCC2=C(c3ccc(Cl)nc3)CCC2)c1C` [Compound 158, 3-(4-((2-(6-chloropyridin-3-yl)cyclopent-1-en-1-yl)methoxy)-2,3-dimethylphenyl)Propanoic Acid] are 6.88 and 6.49.

`Cc1ccc(C2=C(COc3ccc(CCC(=O)O)c(C)c3C)CCCC2)cc1F` [Compound 496, 3-[4-[[2-(3-fluoro-4-methyl-phenyl)cyclohexen-1-yl]methoxy]-2,3-dimethyl-phenyl]Propanoic Acid]: the negative logarithm of the EC50 (pEC50) was 7.09 at Human GPR120 short form and 6.45 in assay [1]. Taken in the same sequence, the figures for `Cc1ccc(C2=C(COc3ccc(CCC(=O)O)c(C)c3C)CCC2)cc1N` [Compound 134, 3-(4-((2-(3-amino-4-methylphenyl)cyclopent-1-en-1-yl)methoxy)-2,3-dimethylphenyl)Propanoic Acid] were 5.84 and 6.13. Taken in the same sequence, the figures for `O=C(O)CCc1ccc(OCC2=C(c3ccc(Cl)cc3)CCCC2)c(F)c1F` [Compound 513, 3-[4-[[2-(4-chlorophenyl)cyclohexen-1-yl]methoxy]-2,3-difluoro-phenyl]Propanoic Acid] were 7.38 and 6.86. Taken in the same sequence, the figures for `Cc1c(CCC(=O)O)ccc(OCC2=C(c3ccccc3Br)CCC2)c1C` [Compound 111, 3-[4-[[2-(2-bromophenyl)cyclopenten-1-yl]methoxy]-2,3-dimethyl-phenyl]Propanoic Acid] were 6.16 and 5.57. In the case of `Cc1c(CCC(=O)O)ccc(OCC2=C(c3ccc(Cl)cc3)CCC(F)(F)C2)c1C` [Compound 468, 3-[4-[[2-(4-chlorophenyl)-5,5-difluoro-cyclohexen-1-yl]methoxy]-2,3-dimethyl-phenyl]Propanoic Acid], the pEC50 on Human GPR120 short form is 7.25 and 7.27; in assay [1] it was 6.61. As for `Cc1c(CCC(=O)O)ccc(OCC2=C(c3ccc(Cl)cc3)CCC2)c1C` [Compound 15, 3-(4-((2-(4-chlorophenyl)cyclopent-1-en-1-yl)methoxy)-2,3-dimethylphenyl)Propanoic Acid], the pEC50 at Human GPR120 short form was 7.15; in assay [1], 6.91. In the case of `Cc1c(CCC(=O)O)ccc(OCC2=C(c3ccc(Cl)cc3)CC(F)(F)C2)c1C` [Compound 137, 3-[4-[[2-(4-chlorophenyl)-4,4-difluoro-cyclopenten-1-yl]methoxy]-2,3-dimethyl-phenyl]Propanoic Acid], on Human GPR120 short form, the pEC50 is 7.19. With `CCc1ccc(C2=C(COc3ccc(CCC(=O)O)c(F)c3F)CCC2)cc1` [Compound 25, 3-(4-((2-(4-ethylphenyl)cyclopent-1-en-1-yl)methoxy)-2,3-difluorophenyl)Propanoic Acid], the negative-log EC50 (pEC50) in assay [1] was 7.05. The same measure, in the same setting: the figure for `Cc1c(CCC(=O)O)ccc(OCC2=C(c3ccc(OC(F)(F)F)cc3)CCC2)c1C` [Compound 20, 3-(2,3-dimethyl-4-((2-(4-(trifluoromethoxy)phenyl)cyclopent-1-en-1-yl)methoxy)phenyl)Propanoic Acid] is below 5.30.
